Experimental data: ChEMBL document CHEMBL1137989, “Synthesis, electrochemistry, and bioactivity of the cyanobacterial calothrixins and related quinones” (J Med Chem, 2004)

Tested on: HeLa
Assay: Cytotoxicity against HeLa cell lines
Format: functional, cell-based
Settings: Homo sapiens

How did the EC50 turn out when `COn1c2c(c3ccccc31)C(=O)c1ccccc1C2=O` was run?
Its EC50 is 1600 nM.

`O=C1c2ccncc2C(=O)c2c1[nH]c1ccccc21` was tested. Which EC50 did it give?
The EC50 was 150 nM.

Which EC50 does the source give for `COC(=O)c1ccccc1C(=O)c1cn(OC)c2ccccc12` here?
Its EC50 is greater than 50000 nM.

How did the EC50 turn out when `COC(=O)c1ccccc1C(=O)c1c[nH]c2ccccc12` was run?
Its EC50 is greater than 50000 nM.

Which EC50 does the source give for `COCn1c2c(c3ccccc31)C(=O)c1cnc3ccccc3c1C2=O` here?
Its EC50 is 420 nM.

How did the EC50 turn out when `O=C1c2ccccc2C(=O)c2c1[nH]c1ccccc21` [BENZOCARBAZOLEDIONE] was run?
The EC50 was 430 nM.

Which EC50 does the source give for `O=C1c2c[n+]([O-])c3ccccc3c2C(=O)c2[nH]c3ccccc3c21` [CALOTHRIXIN A] here?
The EC50 was 120 nM.

With `O=C1c2[nH]c3ccccc3c2C(=O)c2cnc3ccccc3c21` [CALOTHRIXIN B] as the molecule, how does the EC50 read?
Its EC50 is 240 nM.

`CC1=CC(=O)c2ccccc2C1=O` [MENADIONE] was tested. Which EC50 did it give?
Its EC50 is 3700 nM.
